Measured values reported in US20250296971A1, “GASTRIC INHIBITORY PEPTIDE RECEPTOR LIGANDS” (priority 2021, published 2025).
*1 amine or outer side, *2 acyl side, *3 side chain or, on linkers, in order; H or OH if unused. Where a SMILES comes first, the peptide text is derived from it. Bridges are numbered along the chain shown (N, C = ends). [ ]: non-standard residue; d: D form. The star is where a group is joined. NH(1-deoxy-D-glucityl) = OC[C@@H](O)[C@@H](O)[C@H](O)[C@@H](O)CN*; DOTA = O=C(O)CN1CCN(CC(=O)O)CCN(CC(=O)*)CCN(CC(=O)O)CC1; Trp(5-Cl) = N[C@@H](Cc1c[nH]c2ccc(Cl)cc12)C(=O)O; Pyridine(2,6-diCH2) = c1cc(C[*:1])nc(C[*:2])c1; Trp(7-F) = N[C@@H](Cc1c[nH]c2c(F)cccc12)C(=O)O; Pro(4R-NH2) = N[C@H]1CN[C@H](C(=O)O)C1; mXylylene = c1cc(C[*:1])cc(C[*:2])c1; N(CH2CH2COOH)Gly = O=C(O)CCNCC(=O)O; Glutaryl = O=C(CCCC(=O)[*:2])[*:1]; PEG6 = NCCOCCOCCOCCOCCOCCOCCC(=O)O; Hyp = O=C(O)[C@@H]1C[C@@H](O)CN1; X1 = O=C(CN1CCC(N[*:1])CC1)[*:2]; Api = NC1(C(=O)O)CCNCC1; Thp = NC1(C(=O)O)CCOCC1

Molecular target: T1, GIPR (CHO-K1-hGIPR cells) (Homo sapiens, UniProt P48546)
T1 construct: host or cells: CHO-K1
T1 sequence (P48546 22-466): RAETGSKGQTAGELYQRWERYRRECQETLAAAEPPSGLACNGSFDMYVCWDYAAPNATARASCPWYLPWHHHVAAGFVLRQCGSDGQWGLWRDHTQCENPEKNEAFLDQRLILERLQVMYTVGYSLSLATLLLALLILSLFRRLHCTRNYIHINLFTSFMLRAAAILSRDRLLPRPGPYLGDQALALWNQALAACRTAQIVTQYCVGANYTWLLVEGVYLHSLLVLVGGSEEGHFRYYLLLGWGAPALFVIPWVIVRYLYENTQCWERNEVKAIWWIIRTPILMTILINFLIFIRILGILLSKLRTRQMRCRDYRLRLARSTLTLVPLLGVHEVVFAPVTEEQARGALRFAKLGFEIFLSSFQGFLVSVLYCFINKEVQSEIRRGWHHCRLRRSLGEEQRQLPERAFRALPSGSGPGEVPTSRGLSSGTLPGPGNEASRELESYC
Test: FACS binding assay
Conditions: competition with 20 nM GIP-057, 4° C., 1 hour, read-out: pIC50 Category (converted)
How it was run: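 Median fluorescence in the APC channel, measured on washed CHO-K1 cells overexpressing human GIPR, was fitted by four-parameter logistic regression against peptide concentration to yield EC50 or IC50 values. Secondary labelling used APC-streptavidin (1 μg/mL, 30 min, ice).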

Structure (SMILES)	IC50 [µM]
CC[C@H](C)[C@@H]1NC(=O)[C@H](CCCNC(=N)N)NC(=O)C2(CCOCC2)NC(=O)[C@@H](NC(=O)[C@@H](CC(C)C)NC(=O)[C@H](CCC(=O)O)NC(=O)[C@@H]2C[C@@H](O)CN2C(=O)[C@H](Cc2c[nH]c3ccc(Cl)cc23)NC(=O)[C@H](Cc2c[nH]c3ccccc23)NC(=O)[C@H](CC(=O)O)NC(C)=O)CSCc2cccc(n2)CSC[C@@H](C(N)=O)NC1=O [GIP-230, Ac-Asp-Trp-5Clw-Hyp-Glu-leu-[Cys(2Lut)-Thp-Arg-Ile-Cys]-NH2] (Ac-DW[Trp(5-Cl)][Hyp]E[dL]C[Thp]RIC-NH2; linker 7-11 via Pyridine(2,6-diCH2))	< 0.01
CC[C@H](C)[C@@H]1NC(=O)[C@H](CC(C)C)NC(=O)C2(CCOCC2)NC(=O)[C@@H](NC(=O)[C@@H](CC(C)C)NC(=O)[C@H](CCC(=O)O)NC(=O)CN(CCC(=O)O)C(=O)[C@H](Cc2c[nH]c3ccc(Cl)cc23)NC(=O)[C@H](Cc2c[nH]c3ccccc23)NC(=O)[C@H](CC(=O)O)NC(C)=O)CSCc2cccc(n2)CSC[C@@H](C(N)=O)NC1=O [GIP-196, Ac-Asp-Trp-5Clw-Nglu-Glu-leu-[Cys(2Lut)-Thp-Leu-Ile-Cys]-NH2] (Ac-DW[Trp(5-Cl)][N(CH2CH2COOH)Gly]E[dL]C[Thp]LIC-NH2; linker 7-11 via Pyridine(2,6-diCH2))	< 0.01
CC[C@H](C)[C@@H]1NC(=O)[C@H](CC(C)C)NC(=O)C2(CCOCC2)NC(=O)[C@@H](NC(=O)[C@@H](CC(C)C)NC(=O)[C@H](CCC(=O)O)NC(=O)[C@@H]2C[C@@H](N)CN2C(=O)[C@H](Cc2c[nH]c3ccc(Cl)cc23)NC(=O)[C@H](Cc2c[nH]c3ccccc23)NC(=O)[C@H](CC(=O)O)NC(=O)[C@@H](CCC(=O)NC[C@H](O)[C@@H](O)[C@H](O)[C@H](O)CO)NC(=O)CCOCCOCCOCCOCCOCCOCCNC(=O)CN2CCN(CC(=O)O)CCN(CC(=O)O)CCN(CC(=O)O)CC2)CSCc2cccc(n2)CSC[C@@H](C(=O)NC2CCN(CC(=O)N[C@H](CCC(=O)NC[C@H](O)[C@@H](O)[C@H](O)[C@H](O)CO)C(N)=O)CC2)NC1=O [GIP-037, DOTA-PEG6-glu(AGLU)-Asp-Trp-5Clw-Tap-Glu-leu-[Cys(2Lut)-Thp-Leu-Ile-Cys]-APAc-glu(AGLU)-NH2] ({DOTA-PEG6}-[dE](NH(1-deoxy-D-glucityl))DW[Trp(5-Cl)][Pro(4R-NH2)]E[dL]C[Thp]LIC[X1][dE](NH(1-deoxy-D-glucityl))-NH2; linker 8-12 via Pyridine(2,6-diCH2))	< 0.01
CCOCCOCCOCCOCCOCCOCCOCCOCCOCCOCCOCCOCCOCCOCCOCCOCCOCCOCCOCCOCCOCCOCCOCCOCCOCCOCCOCCOCCOCCOCCOCCOCCOCCOCCOCCOCCOCC(=O)NC1CCN(CC(=O)N[C@@H](CC(=O)O)C(=O)N[C@@H](Cc2c[nH]c3ccccc23)C(=O)N[C@@H](Cc2c[nH]c3ccc(Cl)cc23)C(=O)N2C[C@H](O)C[C@H]2C(=O)N[C@@H](CCC(=O)O)C(=O)N[C@H](CC(C)C)C(=O)N[C@H]2CSCc3cccc(n3)CSC[C@@H](C(=O)NC3CCN(CC(=O)N[C@H](CCC(=O)NC[C@H](O)[C@@H](O)[C@H](O)[C@H](O)CO)C(N)=O)CC3)NC(=O)[C@H]([C@@H](C)CC)NC(=O)[C@H](CC(C)C)NC(=O)C3(CCN(C(=O)CN4CCN(CC(=O)O)CCN(CC(=O)O)CCN(CC(=O)O)CC4)CC3)NC2=O)CC1 [GIP-041, MeO36PEG-APAc-Asp-Trp-5Clw-Hyp-Glu-leu-[Cys(2Lut)-Apc(DOTA)-Leu-Ile-Cys]-APAc-glu(AGLU)-NH2]	0.01 to 0.0794
CC[C@H](C)[C@@H]1NC(=O)[C@H](CC(C)C)NC(=O)[C@H](CCCCN)NC(=O)[C@@H](NC(=O)[C@H](CC(C)C)NC(=O)[C@H](CCC(=O)O)NC(=O)[C@@H]2CCCN2C(=O)[C@H](Cc2c[nH]c3ccccc23)NC(=O)[C@H](Cc2c[nH]c3ccccc23)NC(=O)[C@H](CC(=O)O)NC(=O)[C@H](Cc2ccc(O)cc2)NC(=O)[C@@H](N)CCSC)CSCc2cccc(c2)CSC[C@@H](C(N)=O)NC1=O [GIP-243] (H-MYDWWPELCKLIC-NH2; linker 9-13 via mXylylene)	0.01 to 0.0794
CC[C@H](C)[C@@H]1NC(=O)[C@H](CC(C)C)NC(=O)C2(CCN(C(=O)CN3CCN(CC(=O)O)CCN(CC(=O)O)CCN(CC(=O)O)CC3)CC2)NC(=O)[C@@H](NC(=O)[C@@H](CC(C)C)NC(=O)[C@H](CCC(=O)O)NC(=O)[C@@H]2C[C@@H](N)CN2C(=O)[C@H](Cc2c[nH]c3ccc(Cl)cc23)NC(=O)[C@H](Cc2c[nH]c3ccccc23)NC(=O)[C@H](CC(=O)O)NC(=O)CN2CCC(NC(=O)CCCC(=O)NC[C@H](O)[C@@H](O)[C@H](O)[C@H](O)CO)CC2)CSCc2cccc(n2)CSC[C@@H](C(=O)NC2CCN(CC(=O)N[C@H](CCC(=O)NC[C@H](O)[C@@H](O)[C@H](O)[C@H](O)CO)C(N)=O)CC2)NC1=O [GIP-013, AGLU-Glutar-APAc-Asp-Trp-5Clw-Tap-Glu-leu-[Cys(2Lut)-Apc(DOTA)-Leu-Ile-Cys]-APAc-glu(AGLU)-NH2] ({NH(1-deoxy-D-glucityl)-Glutaryl}-[X1]DW[Trp(5-Cl)][Pro(4R-NH2)]E[dL]C[Api](DOTA)LIC[X1][dE](NH(1-deoxy-D-glucityl))-NH2; linker 8-12 via Pyridine(2,6-diCH2))	< 0.01
CC[C@H](C)[C@@H]1NC(=O)[C@H](CC(C)C)NC(=O)C2(CCOCC2)NC(=O)[C@@H](NC(=O)[C@@H](CC(C)C)NC(=O)[C@H](CCC(=O)O)NC(=O)[C@@H]2C[C@@H](O)CN2C(=O)[C@H](Cc2c[nH]c3c(F)cccc23)NC(=O)[C@H](Cc2c[nH]c3ccccc23)NC(=O)[C@H](CC(=O)O)NC(C)=O)CSCc2cccc(n2)CSC[C@@H](C(N)=O)NC1=O [GIP-227, Ac-Asp-Trp-7Fw-Hyp-Glu-leu-[Cys(2Lut)-Thp-Leu-Ile-Cys]-NH2] (Ac-DW[Trp(7-F)][Hyp]E[dL]C[Thp]LIC-NH2; linker 7-11 via Pyridine(2,6-diCH2))	< 0.01
